# Data: PMC2719696, “Kinetics and Cellular Site of Glycolipid Loading Control the Outcome of Natural Killer T Cell Activation” (Immunity, 2009)
# Target: T1, mCD1d (Mus musculus, UniProt P11609)
# T1 construct: host or cells: JAWS II (C57BL/6.Trp53-/- derived dendritic cell line)
# T1 sequence (P11609 22-336): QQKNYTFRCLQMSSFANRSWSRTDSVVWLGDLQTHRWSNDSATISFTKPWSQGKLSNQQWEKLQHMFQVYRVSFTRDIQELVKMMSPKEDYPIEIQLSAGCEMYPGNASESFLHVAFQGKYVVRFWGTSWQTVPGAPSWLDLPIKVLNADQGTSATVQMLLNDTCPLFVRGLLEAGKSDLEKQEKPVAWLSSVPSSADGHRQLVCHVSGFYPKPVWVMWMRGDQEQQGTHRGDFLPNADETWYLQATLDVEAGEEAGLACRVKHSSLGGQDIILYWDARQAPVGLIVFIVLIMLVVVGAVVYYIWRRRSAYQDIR
# T1 sequence (P01887 21-119 partner): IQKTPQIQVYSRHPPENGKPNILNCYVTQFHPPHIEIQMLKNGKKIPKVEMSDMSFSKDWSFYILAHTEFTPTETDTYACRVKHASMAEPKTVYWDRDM
# Assay: Confocal microscopy of L363 staining in JAWS II cells (surface and permeabilized)
# Type: cell-based
# Settings: for L363 surface staining of intact cells (confocal): 100 nM glycolipid, 1, 4 or 16 hr; for site of L363 staining in permeabilized cells: 1 hr incubation, co-stained for LAMP-1
# Protocol: To visualize the kinetics and sites of mCD1d loading by αGalCer analogs in live cells, we analyzed intact JAWS II cells for surface staining with mAb L363 after 1, 4, or 16 hr of incubation with αGalCer-C26:0 or with either of two Th2 cell-type cytokine-biasing analogs (αGalCer-C20:2 or -C10:0) (Figure 4A). Strong staining of the plasma membrane was seen after 16 hr of incubation in all cases. […] To image earlier steps in glycolipid loading, we permeabilized and fixed cells prior to staining with L363 and with an antibody to the late endosomal and lysosomal marker LAMP-1 (Figure 4A). […] At 4 hr, these complexes began to colocalize with LAMP-1, and only at 16 hr could clear surface staining be seen along with the persistent intracellular staining in LAMP-1^+ compartments (Figure 4A).
# Figure 4 Cell Surface versus Intracellular Loading of mCD1d with Different αGalCer Analogs (A) On the left, surface accumulation of CD1d-αGalCer complexes was studied with JAWS II cells harvested after incubation with the indicated glycolipids for 1, 4, or 16 hr and then stained without permeabilization with mAb L363 (red). Cells were then fixed, stained with DAPI for nuclei visualization (blue), and analyzed by confocal microscopy. On the right, the intracellular formation and trafficking of CD1d-αGalCer complexes were analyzed by treatment of JAWS II cells with αGalCer analogs for 1, 4, and 16 hr followed by fixation and permeabilization. The cells were stained for CD1d-αGalCer complexes (L363, red), late endosomes and lysosomes (anti-LAMP-1, green), and nuclei (DAPI, blue). Results are representative of three separate experiments. The scale bar represents 10 μm. (B) Murine iNKT cell hybridoma cells (DN3A4.1-2) were stimulated with αGalCer analogs. As APCs for these stimulations, we used A20 cells transfected with wild-type CD1d (CD1d.WT) or cytoplasmic-tail-deleted CD1d (CD1d.TD). Supernatant concentrations of IL-2 release were determined after 12 hr. IL-2 production over a range of concentrations is shown for αGalCer-C26:0 and two analogs that produce a Th2 cell-type cytokine bias (αGalCer-C20:2 and -PGB1).
# JAWS II cells were incubated at 37°C with 100 nM glycolipids for various times as indicated. For surface staining, live cells were harvested and washed extensively with PBS, resuspended in PBS + 1% BSA + 0.1% NaN3, stained on ice with 10 μg/ml Alexa Fluor 647-conjugated mAb L363 for 30 min, and lastly washed extensively and fixed with 4% paraformaldehyde. Cells were washed with PBS and settled onto poly-L-lysine-coated coverslips for 30 min and mounted with ProLong Gold with DAPI mounting medium (Invitrogen). For intracellular staining, JAWS II cells grown on glass coverslips were fixed in 4% paraformaldehyde, permeabilized with 0.05% Triton X-100 for 5 min, and stained with 10 μg/ml Alexa Fluor 647-conjugated L363 and FITC-conjugated anti-LAMP-1. Coverslips were washed and mounted. Confocal images were obtained with a Leica SP2 AOBS confocal microscope (Leica Microsystems). For colocalization of αGalCer/mCD1d complexes with ganglioside GM1-enriched plasma membrane lipid rafts, JAWS II cells were incubated for 18 hr at 37°C in complete medium without or with 100 nM of glycolipids. […] We performed quantitative analysis of colocalization by selecting 20–25 random cells in each group and determining a Pearson correlation coefficient for the distribution of pixel densities for K253 or L363 fluorescence compared to cholera toxin B-specific fluorescence. […]
SMILES,L363 surface staining of intact cells (confocal),site of L363 staining in permeabilized cells
CCCCCCCCCCCCCCC(O)C(O)C(COC1OC(CO)C(O)C(O)C1O)NC(=O)CCCCCCCCC (centres unmarked) [αGalCer-C10:0],showed L363 staining at earlier time points,L363 staining was observed at the plasma membrane
CCCCCC=CCC=CCCCCCCCCCC(=O)NC(COC1OC(CO)C(O)C(O)C1O)C(O)C(O)CCCCCCCCCCCCCC (centres unmarked) [αGalCer-C20:2],showed L363 staining at earlier time points,L363 staining was observed at the plasma membrane
"CCCCCCCCCCCCCCCCCCCCCCCCCC(=O)NC(COC1OC(CO)C(O)C(O)C1O)C(O)C(O)CCCCCCCCCCCCCC (centres unmarked) [αGalCer-C26:0, reference compound]",–,observed only in a punctate intracellular distribution
